According to US20200048305A1, “GLUTATHIONE-CHOLESTEROL DERIVATIVES AS BRAIN TARGETING AGENTS” (South Dakota Board of Regents, priority 2018, published 2020):

Experiments:
[1] = Brain-targeting of GUNW-3 DiR micelles, in-vivo whole body fluorescence imaging
[2] = Chemical stability of GUNW-3 in methanol-ammonium aqueous solution; format: physicochemical; settings: methanol-ammonium aqueous solution (1:1), pH 10.8, 4° C., checked 7 days
Description: The stability of GUNW-3 in a methanol-ammonium aqueous solution (1:1) at pH 10.8, the pH GUNW-3 was soluble, was checked continuously for 7 days at 4° C. (FIG. 4). […] However, it started to decompose quickly after 3 days.

[3] = test system: CV-1 cells (monkey kidney cells); assay: In-vitro cytotoxicity by the MTT assay, CV-1 cells; format: cell-based; settings: Primates
[4] = test system: NCI-H226 cells (human lung cancer cells); assay: In-vitro cytotoxicity by the MTT assay, NCI-H226 cells; format: cell-based

Row | presence in the spinal cord ([1]; mice, lateral image at 1 h) | brain distribution (lateral images) ([1]; mice, tail vein injection, 5 μg DiR, lateral images at 1 h) | Compound | stability of GUNW-3 [2] | IC50 [3] [µM] | IC50 [4] [µM] | distribution in liver ([1]; when delivered in micelles)
1 | not observed | no significant brain distribution | CCCCCCCCCCCCCCCCCCN1/C(=C/C=C/C=C/C=C/C2=[N+](CCCCCCCCCCCCCCCCCC)c3ccccc3C2(C)C)C(C)(C)c2ccccc21.[I-] [free DiR] |  |  |  | 
2 |  |  | CC(C)CCCC(C)C1CCC2C3CC=C4CC(OCCOCCOC(=O)CCSCC(NC(=O)CCC(N)C(=O)O)C(=O)NCC(=O)O)CC[C@@]4(C)C3CC[C@@]12C (stereo partly drawn) [GUNW-3] | stable in the first 3 days | 650 | 470 | low distribution in liver
